From ChEMBL document CHEMBL1201862, “PubChem BioAssay data set” (2004)
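Five concentrations, 48 hours, 96-well plates. The concentration for 50% growth inhibition is given as GI50.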 Active and inactive are the calls of the source. No stated cut-off is given here; in the data, active = GI50 up to about 1.1 µM and inactive = higher.

What was measured:
Experiment in all cases: inhibition of tumour cell growth, NCI panel, 48 h
786-0 = system: 786-0
A498 = system: A498
A549 = system: A549
ACHN = system: ACHN
BT-549 = system: BT-549
CAKI-1 = system: CAKI-1
CCRF-CEM = system: CCRF-CEM
COLO 205 = system: COLO 205
DU-145 = system: DU-145
EKVX = system: EKVX
HCC 2998 = system: HCC 2998
HCT-116 = system: HCT-116
HCT-15 = system: HCT-15
HL-60 = system: HL-60
HOP-62 = system: HOP-62
HOP-92 = system: HOP-92
HT-29 = system: HT-29
Hs-578T = system: Hs-578T
IGROV-1 = system: IGROV-1
K562 = system: K562
KM12 = system: KM12
LOX IMVI = system: LOX IMVI
M14 = system: M14
MCF7 = system: MCF7
MDA-MB-231 = system: MDA-MB-231
MDA-MB-435 = system: MDA-MB-435
MDA-N = system: MDA-N
MOLT-4 = system: MOLT-4
Malme-3M = system: Malme-3M
NCI-H226 = system: NCI-H226
NCI-H23 = system: NCI-H23
NCI-H460 = system: NCI-H460
NCI-H522 = system: NCI-H522
NCI/ADR-RES = system: NCI/ADR-RES
OVCAR-3 = system: OVCAR-3
OVCAR-4 = system: OVCAR-4
OVCAR-5 = system: OVCAR-5
OVCAR-8 = system: OVCAR-8
PC-3 = system: PC-3
RPMI-8226 = system: RPMI-8226
RXF 393 = system: RXF 393
SF-268 = system: SF-268
SF-295 = system: SF-295
SF-539 = system: SF-539
SK-MEL-28 = system: SK-MEL-28
SK-MEL-2 = system: SK-MEL-2
SK-MEL-5 = system: SK-MEL-5
SN12C = system: SN12C
SNB-19 = system: SNB-19
SNB-75 = system: SNB-75
SR = system: SR
SW-620 = system: SW-620
T47D = system: T47D
TK-10 = system: TK-10
U-251 = system: U-251
UACC-257 = system: UACC-257
UO-31 = system: UO-31

## COc1cc2oc(=O)cc(C)c2cc1O
786-0
  GI50: > 100 µM (inactive)
A498
  GI50: > 100 µM (inactive)
A549
  GI50: > 100 µM (inactive)
ACHN
  GI50: > 100 µM (inactive)
BT-549
  GI50: > 100 µM (inactive)
CAKI-1
  GI50: > 100 µM (inactive)
CCRF-CEM
  GI50: > 100 µM (inactive)
COLO 205
  GI50: > 100 µM (inactive)
DU-145
  GI50: > 100 µM (inactive)
EKVX
  GI50: > 100 µM (inactive)
HCC 2998
  GI50: 3 µM (inactive)
HCT-116
  GI50: > 100 µM (inactive)
HCT-15
  GI50: > 100 µM
HL-60
  GI50: > 100 µM (inactive)
HOP-62
  GI50: > 100 µM (inactive)
HOP-92
  GI50: 46.3 µM (inactive)
HT-29
  GI50: > 100 µM (inactive)
Hs-578T
  GI50: > 100 µM (inactive)
IGROV-1
  GI50: > 100 µM (inactive)
K562
  GI50: > 100 µM (inactive)
KM12
  GI50: > 100 µM (inactive)
LOX IMVI
  GI50: > 100 µM (inactive)
M14
  GI50: > 100 µM (inactive)
MCF7
  GI50: > 100 µM (inactive)
MDA-MB-231
  GI50: > 100 µM (inactive)
MDA-MB-435
  GI50: > 100 µM (inactive)
MDA-N
  GI50: > 100 µM (inactive)
MOLT-4
  GI50: > 100 µM (inactive)
Malme-3M
  GI50: > 100 µM (inactive)
NCI-H226
  GI50: > 100 µM (inactive)
NCI-H23
  GI50: > 100 µM (inactive)
NCI-H460
  GI50: > 100 µM (inactive)
NCI-H522
  GI50: > 100 µM (inactive)
NCI/ADR-RES
  GI50: > 100 µM (inactive)
OVCAR-3
  GI50: > 100 µM (inactive)
OVCAR-4
  GI50: > 100 µM (inactive)
OVCAR-5
  GI50: > 100 µM (inactive)
OVCAR-8
  GI50: > 100 µM (inactive)
PC-3
  GI50: > 100 µM (inactive)
RPMI-8226
  GI50: > 100 µM (inactive)
RXF 393
  GI50: > 100 µM (inactive)
SF-268
  GI50: > 100 µM (inactive)
SF-295
  GI50: > 100 µM (inactive)
SF-539
  GI50: > 100 µM (inactive)
SK-MEL-28
  GI50: > 100 µM (inactive)
SK-MEL-2
  GI50: > 100 µM (inactive)
SK-MEL-5
  GI50: > 100 µM (inactive)
SN12C
  GI50: > 100 µM (inactive)
SNB-19
  GI50: > 100 µM (inactive)
SNB-75
  GI50: > 100 µM (inactive)
SR
  GI50: > 100 µM (inactive)
SW-620
  GI50: > 100 µM (inactive)
T47D
  GI50: 41 µM (inactive)
TK-10
  GI50: > 100 µM (inactive)
U-251
  GI50: > 100 µM (inactive)
UACC-257
  GI50: > 100 µM (inactive)
UO-31
  GI50: 54.5 µM (inactive)
